Entries after “also recorded” stand apart in the source; their conditions may differ.
Columns and labels:
myoblasts = test: Intracellular calcium mobilization in myoblasts (Fluo-4 Assay); assay type: cell-based, human; details: for intracellular calcium on stimulation with the substance: control and patient myoblasts, live imaging; for intracellular calcium mobilization in patient myoblasts stimulated with CpG-A: pre-treatment, concentration not given
Experimental: Intracellular calcium mobilization was measured in myoblasts using the Fluo-4 Assay from Invitrogen according to the manufacturer's directions and as defined previously. Cells were loaded with 1 μm Fluo-4 for 30 min at 37° C. in 5% CO2/95% O2, as described previously […]. The plates were then transferred to a temperature-controlled stage (Harvard Apparatus, Holliston, Mass., USA) on an Olympus IX-70 inverted microscope. Cultures were visualized using a 40×0.7 numerical aperture fluorite water-immersion objective (TC-SP8 Leica).
To evaluate the link between muscle damage and inflammation, we explored TLR ligand involvement in the control of intracellular Ca2+ dynamics, as its intracellular increase is the hallmark of rhabdomyolysis. The levels of intracellular Ca2+ recorded using live imaging of resting cells were equivalent among control and patient cells. […] This effect observed with patient cells was specific for TLR9 ligands since no response was observed following exposure to LPS or Imiquimod in both patient and control cells. Pre-treatment with 10 μM of chloroquine or ODN-i abolished intracellular calcium mobilization in patient cells in presence of CpG-A completely. […] To obtain additional evidence for the role of inflammation in muscle damage, we measured ATP production in myoblasts following stimulation with CpG-A; we found an impairment of ATP production following stimulation with inflammatory stimuli in patient cells compared to control. To confirm the deleterious effect of TLR9 ligands in patient myoblasts, we incubated myoblasts with increasing doses of CpG-A and measured cellular mortality at different time point as accessed by the viability assay. Myoblasts from patients were exclusively sensitive to TLR9 ligands.

TLR9 = molecular target: T1, TLR9 (Homo sapiens, UniProt Q9NR96); test: IL-6 secretion of myoblasts stimulated with CpG-A (TLR9 ligand) after pre-treatment with TLR9 antagonists; assay type: cell-based; details: myoblasts pre-treated with the substance, then stimulated with CpG-A
T1 construct: endogenous in cells; host or cells: primary human CD56+ myoblasts from muscle biopsies
T1 sequence (Q9NR96 26-1032): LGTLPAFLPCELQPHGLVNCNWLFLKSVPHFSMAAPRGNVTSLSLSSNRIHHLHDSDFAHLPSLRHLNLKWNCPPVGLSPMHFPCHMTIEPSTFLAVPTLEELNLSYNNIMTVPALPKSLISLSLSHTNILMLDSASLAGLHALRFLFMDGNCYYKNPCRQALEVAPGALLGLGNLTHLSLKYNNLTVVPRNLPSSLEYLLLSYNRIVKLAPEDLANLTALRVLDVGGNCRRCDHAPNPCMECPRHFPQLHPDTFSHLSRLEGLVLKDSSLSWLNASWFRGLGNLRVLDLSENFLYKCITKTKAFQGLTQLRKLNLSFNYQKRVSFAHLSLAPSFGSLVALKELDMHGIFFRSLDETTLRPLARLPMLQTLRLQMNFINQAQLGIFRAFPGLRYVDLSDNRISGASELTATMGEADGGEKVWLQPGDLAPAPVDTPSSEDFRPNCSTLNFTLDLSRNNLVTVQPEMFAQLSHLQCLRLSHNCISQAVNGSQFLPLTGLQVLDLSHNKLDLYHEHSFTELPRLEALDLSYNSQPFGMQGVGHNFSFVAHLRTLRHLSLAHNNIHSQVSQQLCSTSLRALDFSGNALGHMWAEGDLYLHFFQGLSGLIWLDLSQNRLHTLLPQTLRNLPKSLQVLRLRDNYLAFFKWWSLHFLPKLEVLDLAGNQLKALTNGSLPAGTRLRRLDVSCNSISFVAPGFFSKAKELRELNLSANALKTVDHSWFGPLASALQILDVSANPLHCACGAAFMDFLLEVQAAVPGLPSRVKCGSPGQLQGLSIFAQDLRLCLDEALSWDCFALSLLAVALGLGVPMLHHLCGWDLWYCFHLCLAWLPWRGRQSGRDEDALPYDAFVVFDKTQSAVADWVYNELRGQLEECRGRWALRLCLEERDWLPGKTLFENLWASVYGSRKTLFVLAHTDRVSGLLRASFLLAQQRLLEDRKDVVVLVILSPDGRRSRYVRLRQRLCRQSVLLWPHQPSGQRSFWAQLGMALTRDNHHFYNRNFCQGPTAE
Experimental: Human primary myoblasts were isolated and grown as described. CD56+ myoblasts were isolated by flow cytometry cell sorting using an anti CD56-APC conjugated antibody (e. Biosciences) and routinely maintained in F10 medium supplemented with 20% Fetal Bovine Serum (FBS).
After 12 hours of TLR stimulation of DC at 37° C. in humidified air containing 5% CO2, the concentrations of human IL-8, IL-6, tumor necrosis factor (TNF)-α, IL-1β, IL-10, IL-4, Monocyte Chemoattractant Protein-1 (MCP-1), RANTES (Regulated on Activation, Normal T cell Expressed and Secreted), and Macrophage Inflammatory Protein (MIP)-1-α and β in the culture supernatants were measured with a human cytokine Cytometric Bead Assay (CBA) kit (BD Biosciences, San Jose, Calif.) in accordance with the manufacturer's instructions. In brief, 50 μL of supernatant was mixed with 50 μL of mixed capture beads, and a standard curve was generated. After 3 hours of incubation at room temperature, the samples were washed and suspended in Phosphate-Buffered Saline (PBS) and then analyzed by flow cytometry (ARIA II; BD Biosciences) with CBA Analysis Software (FCAP Array version 3.0; Soft Flow, St Louis Park, Minn.). The results are expressed in picograms per milliliter. […]

[1] = Treatment of lipin-1 patients with hydroxychloroquine: muscle pain and serum cytokines; assay type: in vivo, human; details: two patients, 6 mg/Kg/day, at three months of treatment
Experimental: Two patients were treated with hydroxychloroquine (Plaquenil®, 6 mg/Kg/day).

Structure (SMILES)	intracellular calcium on stimulation with the substance (myoblasts)	secretion of IL-6 after stimulation by CpG-A (TLR9)	intracellular calcium mobilization in patient myoblasts stimulated with CpG-A (myoblasts)	further results
CC(C)Cn1cnc2c(N)nc3ccccc3c21 [Imiquimod, imiquimod]	no response			
CCN(CC)CCCC(C)Nc1ccnc2cc(Cl)ccc12 (stereo not shown) [chloroquine]		attenuate or abolish; also recorded: abolish	abolish	intracellular calcium mobilization in presence of CpG-A (myoblasts; patient cells (myoblasts), pre-treatment with 10 μM): abolished
O=C1CN(/N=C/c2ccc(-c3ccc([N+](=O)[O-])cc3)o2)C(O)=N1 [dantrium]				elevation of intracellular calcium (myoblasts; patient myoblasts, chelation of intracellular calcium): inhibited
CCN(CCO)CCCC(C)Nc1ccnc2cc(Cl)ccc12 (stereo not shown) [hydroxychloroquine]				muscle pain [1]: decrease; pro-inflammatory cytokines (IL-8, RANTES, MCP-1) in sera [1]: dramatic decrease
C[C@H](CCC(=O)O)C[C@H](C)C[C@H](C)C(=O)/C=C(\O)[C@H](C)C[C@H](C)C/C=C/[C@@H](C)[C@@H](O)[C@@H](C)[C@@H](O)C[C@@H]1CC[C@@](C)([C@H]2CC[C@@](C)([C@@H](C)O)O2)O1 [ionomycin]	induced a rapid calcium flux			
COc1cc(NC(C)CCCN)c2ncccc2c1 (stereo not shown) [primaquine]		attenuate or abolish; also recorded: abolish	abolish	

Reference: patent US10653687B2, “Methods and pharmaceutical compostions for treating rhabdomyolysis” (INSERM (INSTITUT NATIONAL DE LA SANTE ET DE LA RECHERCHE …, priority 2015, dated 2020)
